Experimental data: US20240390328A1, “PHARMACEUTICAL COMPOSITION CONTAINING AS ACTIVE INGREDIENT COMPOUND CONJUGATED TO G4 STRUCTURES OF CORONAVIRUSES FOR PREVENTION OR TREATMENT OF CORONAVIRUS INFECTIOUS DISEASES” (priority 2020, published 2024)
Where two headings read alike, the source gives them in different places.

Key:
[1] = system: SARS-COV-2 RNA G4, position 1574 (NsP2); experiment: CD thermal melting analysis, G4 No. 4; format: binding; conditions: G4 No. 4, position 1574, NsP2; 15 μM RNA G4, 30 μM compound
Method: (§1) For melting, the samples were heated at 25 to 95° C. at 2° C./min with a data pitch of 0.5° C. CD melting analyses were performed with and without G4-binding compounds. The ratio of RNA: G4-binding compound was set to a molar ratio of 1:2. 15 μM RNA G4 was treated with 30 μM G4-binding compound and incubated at room temperature in a buffer comprising 10 mM Tris-HCl (pH 7.5) and 100 mM KCl for 30 minutes. Ellipticity was measured at 265 nm. Thereafter, data were normalized and plotted in OriginPro 2017 to calculate Tm values.
(§2) In addition, 15 μM RNA G4 was treated with 30 μM compound and incubated, and a CD thermal melting curve of RNA G4 (15 μM) was obtained in the presence or absence of the G4-binding compound. Furthermore, the effect of G4-binding compounds on the stability of SARS-COV-2 G4 was confirmed by measuring the difference in melting temperature (ΔTm). The results are illustrated in FIGS. 6A and 6B.

[2] = system: SARS-COV-2 RNA G4, position 2714 (NsP2 + NsP3); experiment: CD thermal melting analysis, G4 No. 5; format: binding; conditions: G4 No. 5, position 2714, NsP2 + NsP3; 15 μM RNA G4, 30 μM compound
Method: as §1, §2

[3] = system: SARS-COV-2 RNA G4, position 18296 (NsP12); experiment: CD thermal melting analysis, G4 No. 15; format: binding; conditions: G4 No. 15, position 18296, NsP12; 15 μM RNA G4, 30 μM compound
Method: as §1, §2

[4] = system: SARS-COV-2 RNA G4, position 26746 (Membrane protein); experiment: CD thermal melting analysis, G4 No. 21; format: binding; conditions: G4 No. 21, position 26746, Membrane protein; 15 μM RNA G4, 30 μM compound
Method: as §1, §2

[5] = system: SARS-COV-2 RNA G4, position 28781 (Nucleocapsid protein); experiment: CD thermal melting analysis, G4 No. 22; format: binding; conditions: G4 No. 22, position 28781, Nucleocapsid protein; 15 μM RNA G4, 30 μM compound
Method: as §1, §2

[6] = system: SARS-COV-2 RNA G4, position 29123 (Nucleocapsid protein); experiment: CD thermal melting analysis, G4 No. 24; format: binding; conditions: G4 No. 24, position 29123, Nucleocapsid protein; 15 μM RNA G4, 30 μM compound
Method: as §1, §2

[7] = system: SARS-COV-2 RNA G4, position 29234 (Nucleocapsid protein); experiment: CD thermal melting analysis, G4 No. 25; format: binding; conditions: G4 No. 25, position 29234, Nucleocapsid protein; 15 μM RNA G4, 30 μM compound
Method: as §1, §2

HCoV-OC43 = HCoV-OC43 dose response curve analysis, virion production (plaque assay), HCT-8 cells; format: cell-based; conditions: Betacoronavirus 1, OC43, 0.05 MOI, 72 hours after infection
HEK293T cells = experiment: Cell viability analysis (EZ Cytox), HEK293T cells; format: cell-based, Human; conditions: up to 75 μM
Method: (§3) Human embryonic kidney (HEK293T) cells and Vero cells were maintained in high-glucose Dulbecco's Modified Eagle's Medium (DMEM) supplemented with 10% fetal bovine serum (FBS) and 1% penicillin-streptomycin, and cultured in a humidified incubator at 37° C. and 5% CO2.
(§4) Cytotoxicity was analyzed using an EZ Cytox assay kit (DogenBio, Korea). HEK293T and Vero cells were put into a 96-well plate at a density of 2×10^4 cells/well in a medium volume of 100 μl/well and cultured at 37° C. for 24 hours. After 24 hours, the cells were treated with the G4-binding compound at various concentrations (0.1, 0.5, 1, 2.5, 5.5, 7.5, 10, 25, 50, and 75 μM) and cultured at 37° C. for 24 hours or 48 hours. Cell viability (%) was calculated by measuring the absorbance value at 455 nm (Luminescence multi-mode microplate reader Synergy™ Neo2) and using the following Equation 1. All experiments were performed in triplicate, and cells untreated with the compound were used as a control. DMEM with the EZ Cytox reagent was used as a blank.
(§5) The toxicity of PDS and PhenDC3 was confirmed in HEK293T cells and Vero cells. The results are illustrated in FIGS. 7A to 7D.

Vero cells = experiment: Cell viability analysis (EZ Cytox), Vero cells; format: cell-based; conditions: up to 75 μM after 48 hours
Method: as §3, §4, §5

N1-WT-G4-353 (Nsp1 G4) = experiment: In-vitro transcription/translation (IVT) analysis, EYFP reporter western blot, N1-WT-G4-353; format: biochemical, SARS-COV-2
N1-WT-G4-3467 (Nsp3 G4) = experiment: In-vitro transcription/translation (IVT) analysis, EYFP reporter western blot, N1-WT-G4-3467; format: biochemical, SARS-COV-2; conditions: N1-WT-G4-3467, compound at 15 to 50 μM
N1-Mut-G4-3467 = format: biochemical, SARS-COV-2; conditions: N1-Mut-G4-3467, 5, 15, 25 and 50 μM
SARS-COV-2 [8] = experiment: microbe, parasite or virus in culture; format: cell-based; conditions: Severe acute respiratory syndrome coronavirus 2; Vero cells, 0.0125 MOI, 24 hours; read-out: IC50, suppressing SARS-COV-2 infection (N protein expression)
SARS-COV-2 [9] = experiment: microbe, parasite or virus in culture; format: cell-based; conditions: Severe acute respiratory syndrome coronavirus 2, Vero cells, read-out: IC50, virion production

SMILES | Tm in ° C. with compound [2] [°C] | ΔTm [2] [°C] | Tm in ° C. with compound [3] [°C] | ΔTm [3] [°C] | Tm in ° C. with compound [4] [°C] | ΔTm [4] [°C] | Tm in ° C. with compound [6] [°C] | ΔTm [6] [°C] | Tm in ° C. with compound [7] [°C] | ΔTm [7] [°C] | also measured
CN1CCC[C@H]1CCNC(=O)c1cn2c3c(c(N4CCC(c5cnccn5)C4)c(F)cc3c1=O)Oc1cc3ccccc3cc1-2 (stereo partly drawn) [CX-3543, 15-fluoro-N-[2-[(2S)-1-methylpyrrolidin-2-yl]ethyl]-18-oxo-14-(3-pyrazin-2-ylpyrrolidin-1-yl)-12-oxa-1-azapentacyclo [11.7.1.0^2,11.0^4,9.0^17,21]henicosa-2,4,6,8, 10, 13 (21), 14,16,19-nonaene-19-carboxamide] | 57.69 | −13.45 | 63.64 | 4.81 | 59.29 | −3.37 | 62.59 | 8.19 | 58.52 | −3.65 | Tm in ° C. with compound [1]: 53.43 °C; ΔTm [1]: 0.05 °C; Tm in ° C. with compound [5]: 82.9 °C; ΔTm [5]: 18.2 °C; IC50 (HCoV-OC43): 1400 nM
NCCOc1cc(C(=O)Nc2cc(OCCN)c3ccccc3n2)nc(C(=O)Nc2cc(OCCN)c3ccccc3n2)c1 [PDS, 4-(2-aminoethoxy)-N2,N6-bis(4-(2-aminoethoxy)quinolin-2-yl)pyridine-2,6-dicarboxamide] | 86.49 | 15.35 | 82.4 | 23.57 | 68.77 | 6.11 | 73.83 | 19.43 | 80.2 | 18.03 | cytotoxicity in HEK293T cells (HEK293T cells): safe to use; cytotoxicity in Vero cells (Vero cells): no cytotoxicity was observed; EYFP expression reduced by (N1-WT-G4-353 (Nsp1 G4); N1-WT-G4-353, compound at 50 μM): 65%; suppressing EYFP reporter expression (N1-WT-G4-353 (Nsp1 G4); N1-WT-G4-353, concentrations less than 50 μM): not effective; EYFP expression suppressed by (N1-WT-G4-3467 (Nsp3 G4)): 60%; EYFP expression, concentration-dependent suppression (N1-Mut-G4-3467): not suppressed; IC50 (SARS-COV-2 [8]): 9450 nM; IC50 (SARS-COV-2 [9]; 24 hours after infection): 1450 nM; IC50 (SARS-COV-2 [9]; 48 hours after infection): 2770 nM
